According to ChEMBL document CHEMBL1147461, “Exploration of the P2-P3 SAR of aldehyde cathepsin K inhibitors” (Bioorg Med Chem Lett, 2004):
pIC50: −log10 of the molar value.

What was measured:
Cathepsin K = target: T1, Cathepsin K (Homo sapiens, UniProt P43235); assay: Inhibitory concentration against recombinant human cathepsin K determined in a fluorescence assay using 10 uM Cbz-Phe-Arg-AMC as substrate
T1 sequence (P43235 whole entry): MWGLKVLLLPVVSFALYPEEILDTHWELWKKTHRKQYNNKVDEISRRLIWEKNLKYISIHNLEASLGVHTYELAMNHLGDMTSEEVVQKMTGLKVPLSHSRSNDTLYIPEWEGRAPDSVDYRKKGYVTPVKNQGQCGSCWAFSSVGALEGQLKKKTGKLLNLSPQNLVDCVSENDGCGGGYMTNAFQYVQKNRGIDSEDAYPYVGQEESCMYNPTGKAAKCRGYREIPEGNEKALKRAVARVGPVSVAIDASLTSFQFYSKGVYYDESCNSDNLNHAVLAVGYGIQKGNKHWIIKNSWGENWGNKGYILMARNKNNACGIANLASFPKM

Procathepsin L = Procathepsin L (Homo sapiens, UniProt P07711); assay: Inhibitory concentration against recombinant human cathepsin L was determined in a fluorescence assay using 5 uM Cbz-Phe-Arg-AMC as substrate
Chain of Procathepsin L (P07711 whole entry): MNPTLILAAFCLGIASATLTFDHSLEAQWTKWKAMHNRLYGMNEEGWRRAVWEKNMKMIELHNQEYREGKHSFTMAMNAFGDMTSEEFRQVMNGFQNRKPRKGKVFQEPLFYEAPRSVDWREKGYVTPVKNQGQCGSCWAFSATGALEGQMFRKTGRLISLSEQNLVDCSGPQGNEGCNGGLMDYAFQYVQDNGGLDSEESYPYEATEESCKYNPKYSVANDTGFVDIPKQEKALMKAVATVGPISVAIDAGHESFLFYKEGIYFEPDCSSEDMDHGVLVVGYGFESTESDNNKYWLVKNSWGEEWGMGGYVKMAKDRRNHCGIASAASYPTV

Cathepsin B = Cathepsin B (Homo sapiens, UniProt P07858); assay: Inhibitory concentration against recombinant human cathepsin B was determined in a fluorescence assay using 10 uM Cbz-Phe-Arg-AMC as substrate

pIC50 (Cathepsin K) | pIC50 (Procathepsin L) | pIC50 (Cathepsin B) | SMILES
7.15 |  |  | CCCC[C@@H](C=O)NC(=O)OC(Cc1ccccc1)Cc1ccccc1
8.74 | 6.13 | 6.34 | CCCC[C@@H](C=O)NC(=O)O[C@@H](C)Cc1ccccc1
9.89 | 7.82 | 7.14 | CCCC[C@@H](C=O)NC(=O)O[C@@H](CC)Cc1ccccc1
8.82 |  |  | CCCC[C@@H](C=O)NC(=O)O[C@@H](CCC)Cc1ccccc1
8.19 |  |  | CCCC[C@@H](C=O)NC(=O)O[C@H](Cc1ccccc1)CC(C)C
6.57 |  |  | CCCC[C@@H](C=O)NC(=O)OCCc1ccccc1
8.96 |  |  | CCCC[C@@H](C=O)NC(=O)OC(CC(C)C)CC(C)C
8.57 | 6.57 | 6.40 | CCCC[C@@H](C=O)NC(=O)O[C@@H](C)CC1CCCCC1
8.62 | 5.92 | 5.47 | CCCC[C@@H](C=O)NC(=O)OC1(Cc2ccccc2)CCC1
8.68 | 6.96 | 5.66 | CCCC[C@@H](C=O)NC(=O)OC(CC)(CC)Cc1ccccc1
6.27 |  |  | CCCC[C@@H](C=O)NC(=O)OCc1ccccc1
7.92 |  |  | CCCC[C@@H](C=O)NC(=O)OC(C)(C)Cc1ccccc1
8.70 | 5.07 | 4.92 | CCCC[C@@H](C=O)NC(=O)OC1(Cc2ccccc2)CCCCC1
8.34 |  |  | CCCC[C@@H](C=O)NC(=O)OC(C)(C)Cc1ccc(Cl)cc1
8.27 |  |  | CCCC[C@@H](C=O)NC(=O)OC(C)(C)Cc1cccc(OC)c1
8.33 |  |  | CCCC[C@@H](C=O)NC(=O)OC(C)(C(C)C)C(C)C
 | 5.70 | 6.09 | CCCC[C@@H](C=O)NC(=O)OC1(Cc2ccccc2)CCCC1
9.25 |  |  | CCCC[C@@H](C=O)NC(=O)OC(C(C)C)C(C)C
8.54 |  |  | CCCC[C@@H](C=O)NC(=O)OC(C)(C)Cc1ccc(OC)cc1
7.00 |  |  | CCCC[C@@H](C=O)NC(=O)O[C@H](C)Cc1ccccc1
8.51 |  |  | CCCC[C@@H](C=O)NC(=O)OC(C)(C)Cc1ccccc1Cl
8.40 |  |  | CCCC[C@@H](C=O)NC(=O)OC(CC)CC
9.06 |  |  | CCCC[C@@H](C=O)NC(=O)OC(CCC)CCC
8.12 |  |  | CCCC[C@@H](C=O)NC(=O)OC(C)(C)Cc1cccc(-c2ccsc2)c1
6.22 |  |  | CCCC[C@@H](C=O)NC(=O)OCCCc1ccccc1
